# Assays:
# Experiment in all cases: relative viability (nuclei count vs DMSO), 5 days (fraction); higher = more cells survive
# Bosutinib + Palbociclib = compound: COc1cc(Nc2c(C#N)cnc3cc(OCCCN4CCN(C)CC4)c(OC)cc23)c(Cl)cc1Cl [Bosutinib] + CC(=O)c1c(C)c2cnc(Nc3ccc(N4CCNCC4)cn3)nc2n(C2CCCC2)c1=O [Palbociclib] (partner 0.5 µM)
# Procedure, shortened: (§1)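 Five library-drug doses in √10 steps were combined with a fixed anchor-drug dose, or a single drug was given alone, by pin tool to lung cancer cell lines in 1536-well plates the day after seeding. Nuclei were stained and counted after 5 days. Relative viability is the nuclei count in treated wells over that in vehicle wells, taken as the median of duplicate plates.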
# Bosutinib + Dasatinib = compound: COc1cc(Nc2c(C#N)cnc3cc(OCCCN4CCN(C)CC4)c(OC)cc23)c(Cl)cc1Cl [Bosutinib] + Cc1nc(Nc2ncc(C(=O)Nc3c(C)cccc3Cl)s2)cc(N2CCN(CCO)CC2)n1 [Dasatinib] (partner 0.075 µM)
# Procedure, shortened: as §1
# Bosutinib + AZD7762 = compound: COc1cc(Nc2c(C#N)cnc3cc(OCCCN4CCN(C)CC4)c(OC)cc23)c(Cl)cc1Cl [Bosutinib] + NC(=O)Nc1cc(-c2cccc(F)c2)sc1C(=O)N[C@H]1CCCNC1 [AZD7762] (partner 0.2 µM)
# Procedure, shortened: as §1
# Bosutinib + Trametinib = compound: COc1cc(Nc2c(C#N)cnc3cc(OCCCN4CCN(C)CC4)c(OC)cc23)c(Cl)cc1Cl [Bosutinib] + CC(=O)Nc1cccc(-n2c(=O)n(C3CC3)c(=O)c3c(Nc4ccc(I)cc4F)n(C)c(=O)c(C)c32)c1 [Trametinib] (partner 0.02 µM)
# Procedure, shortened: as §1
# Bosutinib + Tozasertib = compound: COc1cc(Nc2c(C#N)cnc3cc(OCCCN4CCN(C)CC4)c(OC)cc23)c(Cl)cc1Cl [Bosutinib] + Cc1cc(Nc2cc(N3CCN(C)CC3)nc(Sc3ccc(NC(=O)C4CC4)cc3)n2)n[nH]1 [Tozasertib] (partner 0.1 µM)
# Procedure, shortened: as §1
Cell Line,relative viability (Bosutinib + Palbociclib; first compound 0.01 µM),relative viability (Bosutinib + Palbociclib; first compound 0.03162 µM),relative viability (Bosutinib + Palbociclib; first compound 0.1 µM),relative viability (Bosutinib + Palbociclib; first compound 1 µM),relative viability (Bosutinib + Dasatinib; first compound 0.01 µM),relative viability (Bosutinib + Dasatinib; first compound 0.03162 µM),relative viability (Bosutinib + Dasatinib; first compound 0.1 µM),relative viability (Bosutinib + Dasatinib; first compound 1 µM),relative viability (Bosutinib + AZD7762; first compound 0.01 µM),relative viability (Bosutinib + AZD7762; first compound 0.03162 µM),relative viability (Bosutinib + AZD7762; first compound 0.1 µM),relative viability (Bosutinib + AZD7762; first compound 1 µM),relative viability (Bosutinib + Trametinib; first compound 0.01 µM),relative viability (Bosutinib + Trametinib; first compound 0.03162 µM),relative viability (Bosutinib + Trametinib; first compound 0.1 µM),relative viability (Bosutinib + Trametinib; first compound 1 µM),relative viability (Bosutinib + Tozasertib; first compound 0.01 µM),relative viability (Bosutinib + Tozasertib; first compound 0.03162 µM),relative viability (Bosutinib + Tozasertib; first compound 0.1 µM),relative viability (Bosutinib + Tozasertib; first compound 1 µM)
HCC-827,0.439,0.473,0.469,0.196,0.287,0.279,0.307,0.178,0.219,0.21,0.189,0.168,0.55,0.6,0.594,0.18,0.406,0.442,0.436,0.166
HCC-78,0.457,0.425,0.506,0.435,0.356,0.478,0.46,0.373,0.655,0.788,0.781,0.584,0.84,0.712,0.768,0.725,0.406,0.327,0.439,0.384
NCI-H1975,0.572,0.638,0.625,0.516,0.343,0.395,0.364,0.374,0.742,0.711,0.642,0.559,0.29,0.329,0.42,0.322,0.739,0.871,0.687,0.583
CAL-12T,0.488,0.493,0.396,0.117,0.383,0.426,0.417,0.467,0.576,0.529,0.596,0.515,0.28,0.366,0.334,0.234,0.32,0.316,0.322,0.318
NCI-H2126,0.324,0.322,0.351,0.359,0.583,0.571,0.594,0.62,0.982,1.04,1.03,1.04,0.528,0.546,0.559,0.536,0.823,0.811,0.828,0.763
